Experimental findings from patent US10479795B2 (Incyte Corporation, priority 2016, dated 2019) are described below.

SMILES strings stand for the structures. Where a name gives a salt, the structure may show the parent alone. Read-outs that look alike come from different tables or passages of the source.

Test [1] concerns Phosphorylated Ribosomal Protein S6 (RPS6). Kind of test: THP-1 RPS6 ELISA Assay. Type of test: cell-based, Human. The settings on record: THP-1 cells, read-out: PI3Kγ_THP1_RPS6_ELISA IC50. The procedure, abridged:
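IC50 values come from a curve of percent inhibition against log compound concentration, using phospho-RPS6 ELISA (450 nm) on THP-1 lysates. Cells were serum-starved overnight, exposed to compound for 2 h at 37 °C, then challenged 15 min with 10 nM MCP-1.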

In test [2] the target is PI3Kγ (p110γ) Recombinant Human Protein (Homo sapiens (Human), UniProt P48736). Kind of test: PI3K-γ Scintillation Proximity Assay. The following applies: read-out: PI3Kγ IC50. Type of test: biochemical. The method in brief:
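Radiometric SPA readout: […] bound to WGA beads after overnight shaking, IC50 derived from % activity of DMSO control. Reaction used human p110γ, 2 μM ATP, 20 μM PIP2, pH 6.7 MOPS buffer with MgCl2, DTT, CHAPS, 2% DMSO, room temperature.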
Background: Scintillation proximity formats need no separation of bound from free tracer.

Test [3] has as its target PI3Kδ (p110δ/p85α) Recombinant Human Protein (Homo sapiens (Human), UniProt O00329). Put plainly: PI3Kδ Scintillation Proximity Assay. Type of test: biochemical. The procedure, abridged: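 Assay conditions: 2 μM ATP (radiolabelled), 20 μM PIP2, 3.4 nM PI3Kδ, 20 mM MOPS pH 6.7 with 10 mM MgCl2, 5 mM DTT, 0.03% CHAPS, 2 h at room temperature. Signal from bead-captured 33P product; IC50 versus solvent control.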

Sequence of PI3Kδ (p110δ/p85α) Recombinant Human Protein (O00329 whole entry): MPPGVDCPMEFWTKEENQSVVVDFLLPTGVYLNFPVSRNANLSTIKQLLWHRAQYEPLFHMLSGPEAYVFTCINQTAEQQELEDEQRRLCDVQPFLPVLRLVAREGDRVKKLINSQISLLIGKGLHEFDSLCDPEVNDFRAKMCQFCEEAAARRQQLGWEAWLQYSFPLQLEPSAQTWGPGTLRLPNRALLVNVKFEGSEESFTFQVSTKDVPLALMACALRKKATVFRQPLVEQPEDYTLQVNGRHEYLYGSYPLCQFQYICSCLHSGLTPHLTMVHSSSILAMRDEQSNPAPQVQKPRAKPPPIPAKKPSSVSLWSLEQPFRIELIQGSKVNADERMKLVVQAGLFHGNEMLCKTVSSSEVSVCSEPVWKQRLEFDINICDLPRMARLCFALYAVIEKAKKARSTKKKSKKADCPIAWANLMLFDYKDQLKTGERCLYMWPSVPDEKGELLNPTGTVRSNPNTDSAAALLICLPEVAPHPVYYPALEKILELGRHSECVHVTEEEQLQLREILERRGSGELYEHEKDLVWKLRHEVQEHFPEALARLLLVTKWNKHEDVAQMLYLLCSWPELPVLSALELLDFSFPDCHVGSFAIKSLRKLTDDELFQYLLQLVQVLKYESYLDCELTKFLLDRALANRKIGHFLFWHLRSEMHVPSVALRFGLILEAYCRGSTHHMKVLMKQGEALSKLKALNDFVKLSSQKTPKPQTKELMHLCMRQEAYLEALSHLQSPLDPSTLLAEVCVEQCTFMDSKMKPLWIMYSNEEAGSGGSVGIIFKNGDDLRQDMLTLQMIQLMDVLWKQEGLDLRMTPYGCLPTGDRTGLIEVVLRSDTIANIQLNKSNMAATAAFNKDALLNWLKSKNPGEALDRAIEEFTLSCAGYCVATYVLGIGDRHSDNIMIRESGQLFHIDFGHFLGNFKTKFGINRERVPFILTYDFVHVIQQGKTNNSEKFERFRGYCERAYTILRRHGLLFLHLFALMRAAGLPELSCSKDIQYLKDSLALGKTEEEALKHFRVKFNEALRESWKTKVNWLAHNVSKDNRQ
Sequence of PI3Kδ (p110δ/p85α) Recombinant Human Protein (P27986 whole entry partner): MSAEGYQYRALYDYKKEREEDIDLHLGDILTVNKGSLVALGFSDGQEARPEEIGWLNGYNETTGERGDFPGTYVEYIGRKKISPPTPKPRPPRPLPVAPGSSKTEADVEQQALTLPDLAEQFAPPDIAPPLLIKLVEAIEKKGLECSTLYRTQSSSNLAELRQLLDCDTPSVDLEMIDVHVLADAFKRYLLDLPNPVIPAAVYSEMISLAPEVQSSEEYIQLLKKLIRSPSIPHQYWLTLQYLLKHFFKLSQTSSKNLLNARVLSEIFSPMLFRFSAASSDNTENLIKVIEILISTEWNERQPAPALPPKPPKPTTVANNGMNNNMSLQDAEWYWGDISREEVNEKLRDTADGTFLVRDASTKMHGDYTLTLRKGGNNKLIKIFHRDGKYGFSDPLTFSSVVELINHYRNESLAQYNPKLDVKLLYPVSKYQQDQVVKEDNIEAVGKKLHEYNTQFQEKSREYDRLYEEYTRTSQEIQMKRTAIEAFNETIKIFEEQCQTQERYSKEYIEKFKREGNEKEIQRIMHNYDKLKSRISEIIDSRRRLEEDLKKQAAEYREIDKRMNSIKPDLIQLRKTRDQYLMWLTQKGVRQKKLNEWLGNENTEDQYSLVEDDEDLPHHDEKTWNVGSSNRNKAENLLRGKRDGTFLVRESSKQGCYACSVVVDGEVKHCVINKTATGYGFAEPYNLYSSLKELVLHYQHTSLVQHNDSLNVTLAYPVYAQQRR
Sequence of PI3Kγ (p110γ) Recombinant Human Protein (P48736 whole entry): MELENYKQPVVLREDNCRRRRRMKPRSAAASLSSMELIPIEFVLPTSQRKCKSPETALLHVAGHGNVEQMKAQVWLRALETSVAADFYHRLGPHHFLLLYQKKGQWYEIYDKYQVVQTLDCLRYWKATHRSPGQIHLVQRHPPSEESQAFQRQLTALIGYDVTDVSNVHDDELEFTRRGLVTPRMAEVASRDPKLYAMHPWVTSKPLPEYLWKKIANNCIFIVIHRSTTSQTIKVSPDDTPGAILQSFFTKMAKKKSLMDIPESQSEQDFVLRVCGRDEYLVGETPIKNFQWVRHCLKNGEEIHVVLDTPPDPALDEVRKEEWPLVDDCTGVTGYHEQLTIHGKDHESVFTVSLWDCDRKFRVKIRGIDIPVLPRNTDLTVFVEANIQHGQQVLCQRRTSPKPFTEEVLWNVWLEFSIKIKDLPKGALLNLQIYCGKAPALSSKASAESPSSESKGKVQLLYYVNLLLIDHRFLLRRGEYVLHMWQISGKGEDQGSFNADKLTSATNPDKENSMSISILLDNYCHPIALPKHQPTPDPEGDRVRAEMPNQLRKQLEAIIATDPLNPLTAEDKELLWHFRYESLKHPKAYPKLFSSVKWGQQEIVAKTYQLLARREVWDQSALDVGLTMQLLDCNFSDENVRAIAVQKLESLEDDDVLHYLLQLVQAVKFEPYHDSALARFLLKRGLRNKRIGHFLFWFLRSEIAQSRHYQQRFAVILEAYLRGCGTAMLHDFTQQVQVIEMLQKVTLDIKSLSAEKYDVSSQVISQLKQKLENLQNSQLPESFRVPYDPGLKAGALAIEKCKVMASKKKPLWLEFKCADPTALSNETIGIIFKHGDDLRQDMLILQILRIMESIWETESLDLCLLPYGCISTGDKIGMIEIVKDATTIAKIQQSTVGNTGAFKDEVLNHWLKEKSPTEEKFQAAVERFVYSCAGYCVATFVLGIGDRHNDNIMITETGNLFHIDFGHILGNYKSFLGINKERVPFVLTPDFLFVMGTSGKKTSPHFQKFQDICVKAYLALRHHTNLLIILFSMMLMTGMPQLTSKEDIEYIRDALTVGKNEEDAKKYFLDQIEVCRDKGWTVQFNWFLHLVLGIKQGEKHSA

`Cc1nc(N)c2ncc(-c3cc(S(=O)(=O)N[C@H]4C[C@H](C#N)C4)ccc3C)n2n1` [Example 272, 3-(4-amino-2-methylimidazo[1,2-f][1,2,4]triazin-7-yl)-N-((1r,3r)-3-cyanocyclobutyl)-4-methylbenzenesulfonamide trifluoroacetate salt]: the figures for the IC50 in test [1], in test [2] and in test [3] were 100 to 500 nM, below 100 nM and 100 to 500 nM, respectively.

For `Cc1nc(N)c2ncc(-c3cc(S(=O)(=O)NCC(C)(C)O)cc(F)c3C)n2n1` [Example 468, 3-(4-Amino-2-methylimidazo[2,1-f][1,2,4]triazin-7-yl)-5-fluoro-N-(2-hydroxy-2-methylpropyl)-4-methylbenzenesulfonamide], the IC50 in test [1] (Homo sapiens) was 100 to 500 nM; in test [2], below 100 nM; in test [3], 100 to 500 nM.

Take `Cc1nc(N)c2ncc(-c3cc(S(=O)(=O)N[C@H]4CC[C@](C)(O)CC4)ccc3C)n2n1` [Example 271, 3-(4-amino-2-methylimidazo[1,2-f][1,2,4]triazin-7-yl)-N-((1r,4r)-4-hydroxy-4-methylcyclohexyl)-4-methylbenzenesulfonamide trifluoroacetate salt]: the IC50 in test [1] was below 100 nM; in test [2] it was below 100 nM; in test [3], 100 to 500 nM.

`Cc1ccc(S(=O)(=O)N[C@H]2CC[C@H](O)CC2)cc1-c1cnc2c(N)nc(-c3ccncc3F)cn12` [Example 81, 3-[8-Amino-6-(3-fluoropyridin-4-yl)imidazo[1,2-a]pyrazin-3-yl]-N-(trans-4-hydroxycyclohexyl)-4-methylbenzenesulfonamide]: the IC50 in test [1] (Homo sapiens), in test [2] and in test [3] was below 100 nM throughout.

With `Cc1ccc(S(N)(=O)=O)cc1-c1cnc2c(N)nc(C(F)(F)F)nn12` [Example 336, 3-(4-Amino-2-(trifluoromethyl)imidazo[1,2-f][1,2,4]triazin-7-yl)-4-methylbenzenesulfonamide trifluoroacetate salt], the IC50 in test [1] is 100 to 500 nM; in test [2] it was below 100 nM; in test [3] it was 100 to 500 nM.

On to `CNc1nc(-c2ccccc2F)cn2c(-c3cc(S(=O)(=O)N[C@H]4CC[C@H](O)CC4)ccc3C)cnc12` [Example 36, 3-[6-(2-Fluorophenyl)-8-(methylamino)imidazo[1,2-a]pyrazin-3-yl]-N-(trans-4-hydroxycyclohexyl)-4-methylbenzenesulfonamide trifluoroacetate], for which the IC50 in test [1] (Homo sapiens), in test [2] and in test [3] was below 100 nM each time.

Turning to `Cc1ccc(S(=O)(=O)NC23CCC(c4nccn4C)(CC2)OC3)cc1-c1cnc2c(N)ncnn12` [Example 439, 3-(4-Aminoimidazo[1,2-f][1,2,4]triazin-7-yl)-4-methyl-N-(1-(1-methyl-1H-imidazol-2-yl)-2-oxabicyclo[2.2.2]octan-4-yl)benzenesulfonamide trifluoroacetate salt], the IC50 in test [1] (Homo sapiens) was 500 to 1000 nM; in test [2] it was below 100 nM; in test [3], 500 to 2000 nM.

On to `Cc1ccc(S(=O)(=O)NCC2CCS(=O)(=O)C2)cc1-c1cnc2c(N)ncnn12` (stereo not drawn) [Example 135, 3-(4-aminoimidazo[2,1-f][1,2,4]triazin-7-yl)-N-((1,1-dioxidotetrahydrothiophen-3-yl)methyl)-4-methylbenzenesulfonamide], for which the IC50 in test [1] (Homo sapiens) is above 1000 nM; in test [2] it was below 100 nM; in test [3], 100 to 500 nM.

For the compound `Cc1ccc(S(=O)(=O)N2CCC3(CCCOC3)C2)cc1-c1cnc2c(N)ncnn12` (stereo not drawn) [Example 203, 7-(5-((7-Oxa-2-azaspiro[4.5]decan-2-yl)sulfonyl)-2-methylphenyl)imidazo[2,1-f][1,2,4]triazin-4-amine], the concentration for half-maximal inhibition (IC50) in test [1] (Homo sapiens) is 500 to 1000 nM; in test [2], below 100 nM; in test [3], 100 to 500 nM.

Consider `Cc1ccc(S(=O)(=O)N(CCC#N)C2CCCCC2)cc1-c1cnc2c(N)nc(C(F)(F)F)cn12` [Example 301, 3-(8-amino-6-(trifluoromethyl)imidazo[1,2-a]pyrazin-3-yl)-N-(2-cyanoethyl)-N-cyclohexyl-4-methylbenzenesulfonamide], for which the results for the IC50 in test [1] (Homo sapiens), in test [2] and in test [3] were 100 to 500 nM, below 100 nM and 500 to 2000 nM, respectively.

Turning to `Cc1ccc(S(=O)(=O)NC23CCC(CN4CCOCC4)(CC2)OC3)cc1-c1cnc2c(N)ncnn12` [Example 434, 3-(4-Aminoimidazo[1,2-f][1,2,4]triazin-7-yl)-4-methyl-N-(1-(morpholinomethyl)-2-oxabicyclo[2.2.2]octan-4-yl)benzenesulfonamide trifluoroacetate salt], the IC50 was 100 to 500 nM in test [1] (Homo sapiens), below 100 nM in test [2] and 100 to 500 nM in test [3].

`Cc1ccc(S(=O)(=O)NC2CC2)cc1-c1cnc2c(N)ncnn12` [Example 64, 3-(4-Aminoimidazo[2,1-f][1,2,4]triazin-7-yl)-N-cyclopropyl-4-methylbenzenesulfonamide]: the IC50 is above 1000 nM in test [1] (Homo sapiens), below 100 nM in test [2] and above 2000 nM in test [3].

Regarding `Cc1cc(C)c(S(=O)(=O)NC23CCC(CO)(C2)C3)cc1-c1cnc2c(N)nc(C(F)(F)F)cn12` [Example 400, 5-(8-Amino-6-(trifluoromethyl)imidazo[1,2-a]pyrazin-3-yl)-N-(4-(hydroxymethyl)bicyclo[2.1.1]hexan-1-yl)-2,4-dimethylbenzenesulfonamide trifluoroacetate salt], the IC50 in test [1] (Homo sapiens), in test [2] and in test [3] was below 100 nM in each case.

As to `Cc1cc(Cl)c(S(=O)(=O)N[C@H]2CC[C@](C)(O)CC2)cc1-c1cnc2c(N)nc(C(F)(F)F)nn12` [Example 410, 5-(4-Amino-2-(trifluoromethyl)imidazo[1,2-f][1,2,4]triazin-7-yl)-2-chloro-N-((1r,4r)-4-hydroxy-4-methylcyclohexyl)-4-methylbenzenesulfonamide trifluoroacetate salt], the IC50 in test [1], in test [2] and in test [3] was below 100 nM each time.

For `Cc1ccccc1-c1cn2c(-c3cc(S(=O)(=O)N[C@H]4CC[C@H](O)CC4)ccc3C)cnc2c(N)n1` [Example 17, 3-[8-Amino-6-(2-methylphenyl)imidazo[1,2-a]pyrazin-3-yl]-N-(trans-4-hydroxycyclohexyl)-4-methylbenzenesulfonamide], the values for the IC50 in test [1] (Homo sapiens), in test [2] and in test [3] were 100 to 500 nM, below 100 nM and 100 to 500 nM, respectively.

Regarding `Cc1ccc(S(=O)(=O)NC23CC(C(F)F)(C2)C3)cc1-c1cnc2c(N)nc(C(F)(F)F)cn12` [Example 278, 3-(8-Amino-6-(trifluoromethyl)imidazo[1,2-a]pyrazin-3-yl)-N-(3-(difluoromethyl)bicyclo[1.1.1]pentan-1-yl)-4-methylbenzenesulfonamide trifluoroacetate salt], the IC50 is below 100 nM in test [1] (Homo sapiens), below 100 nM in test [2] and 100 to 500 nM in test [3].

Regarding `Cc1ccc(S(=O)(=O)N2CCC3(CCOCC3)C2)cc1-c1cnc2c(N)ncnn12` [Example 142, 7-(5-((8-oxa-2-azaspiro[4.5]decan-2-yl)sulfonyl)-2-methylphenyl)imidazo[2,1-f][1,2,4]triazin-4-amine], the IC50 in test [1] (Homo sapiens) is 100 to 500 nM; in test [2], below 100 nM; in test [3] it was 500 to 2000 nM.

By IC50 is commonly meant the concentration that gives 50% inhibition.
